# Results reported in patent US11566047B2, “Peptide or pharmaceutically acceptable salt thereof, or prodrug thereof” (TOKYO UNIVERSITY OF PHARMACY & LIFE SCIENCES, priority 2016, dated 2023).
# R111 = not defined here
# System: anterior tibial muscles of mdx mice
# Assay: Influence on anterior tibial muscles of Duchenne muscular dystrophy model mdx mice (muscle weight)
# Format: in vivo
# Details: mdx male mice aged 5 weeks; 40 μL of 0.75 mM intramuscular, again after 2 weeks; necropsy after further 4 weeks; vs saline leg; average of three mice
# Procedure: Regarding PDM-46 prepared in Synthesis Example 18, evaluation was performed by the following method in order to check the muscle mass increasing effect in vivo.
# PDM-46 was dissolved in saline to become 0.75 mM. 40 μL of PDM-46 was intramuscularly administered into the left leg anterior tibial muscles of anesthetized mdx male mice aged 5 weeks (purchased from CLEA Japan, Inc.) (as a control, 40 μL of saline was intramuscularly administered into the right leg anterior tibial muscles). After 2 weeks, the same amount of PDM-46 was administered to the same site again. After further 4 weeks, the mice were subjected to necropsy, the anterior tibial muscles were excised from the both legs, and the weight thereof was measured.
substance,measurement,value
"R^111-WYIESIKIQIISKLRL-NH2 (R111-WYIESIKIQIISKLRL-NH2; reading uncertain; also: printed as R^111-WYIESIKIQIISKLRL-NH2) [PDM-46, R^111 = group of Formula (4), drawing 8]",increase of muscle mass of anterior tibial muscles in terms of weight,about 13%
